The values that follow come from patent US5736523A, “Antineoplastic heteronapthoquinones” (Biochem Pharma Inc., priority 1995, dated 1998).

In general, IC50 refers to the concentration needed to halve the response being measured.

The test system of test [1] is MCF-7. The test can be described thus: In vitro antitumor activity, MCF-7. The test is classed as cell-based. The procedure:
(§1) The microculture tetrazolium assay was used to test in vitro cytotoxicity. This assay is described in Plumb, J. A. et al., 1989 Cancer Research 49, 4435-4440, which is herein incorporated by reference. The cytotoxicity of compounds towards tumor cells is measured in vitro using the assay. This assay method is based upon the ability of live, but not dead cells to reduce the yellow water soluble dye 3-(4;5-dimethylthiazol-2-yl)-2,5-diphenyltetrazolium bromide (MTT) to its water insoluble purple formazan product.
(§2) The plate layout is done in the following manner: The assays are carried out in 96-well (8 well×12 well) microtiter plates. Serial dilutions of the compound are tested along the length of the plate. A 1:3 serial dilution of compound in culture medium covers a concentration range from 100 μM to 1.7 nM. Each concentration of compound is tested in quadruplet, allowing two compounds to be tested per plate. Wells containing no cells (blank) and cells with no test compound (control) are included on each plate.
(§3) Cells are plated out in 100 μl of culture medium in the microtiter plates at a density of around 1,500-4,000 cells per well. […] The plates are shaken briefly and the absorbance at 570 nm is read using a Molecular Devices UV max plate reader. […]

Test [2] deals with MAT-B. Briefly: In vitro antitumor activity, MAT-B. The test is classed as cell-based. The protocol: as §1, §2, §3
The test system of test [3] is T47D (Ductal carcinoma of breast). Briefly: In vitro cytotoxicity, microculture tetrazolium (MTT) assay, T47D. The following applies: read-out: IC50. Format: cell-based, human. The procedure:
(§4) In Vitro Cytotoxicity--Microculture Tetrazolium Assay
as §1
(§5) Human Tumor Cell lines, used were:
T47D (Ductal carcinoma of breast)--ATCC catalog #HTB-133.
(§6) The cells were maintained in exponential growth in culture in minimal essential media (MEM) supplemented with non-essential amino acids, and containing 15% (v/v) fetal bovine serum, 5 mM L-glutamine, 1 mM sodium pyruvate, and 0.1 U/ml insulin. All cell lines were grown at 37° C. in an atmosphere of 5% CO2 in air.
(§7) Test compounds: 20 mM in DMSO and diluted to a final concentration of 200 μM in culture medium before use.
(§8) The following is the generic description of the assay method. It should be noted that although the conditions described work well with the cells listed above, the initial plating density and the MTT concentration used should be verified for each new cell line used to test compounds.
(§9) For each assay, doxorubicin is included as an inter-assay standard. This allows us to monitor the behaviour of the assay in general, and in particular, to check that the SKVLB line has maintained its resistant phenotype.
as §2
(§10) Cells are plated out in 100 μl of culture medium in the microtiter plates at a density of around 1,500-4,000 cells per well. The plates are incubated overnight to allow the cells to become adherent after which the test compound is added (100 μl of appropriate dilution per well). The cells are incubated with test compound at 37° C. for 48 h after which the compound is replaced with fresh medium. After a further 48 h incubation at 37° C., 50 μl of MTT solution (2 mg/ml) is added to each well. The plates are incubated in the dark for 4 h at 37° C. after which the medium is removed. The MTT formazan product is extracted from the cells by the addition of 200 μl DMSO followed by 50 μl of Sorensen's buffer. The plates are shaken briefly and the absorbance at 570 nm is read using a Molecular Devices UV max plate reader. Curves are fit to the MTT assay data using a four parameter logistic equation, and the data are normalized to fit a 0% to 100% survival scale.

In test [4] the test system is Lox (Melanoma). The test can be described thus: In vitro cytotoxicity, microculture tetrazolium (MTT) assay, Lox. The test is classed as cell-based, human. The settings on record: read-out: IC50. The procedure: as §4, §1, §5
Lox (Melanoma)--Southern Research Institute.
as §6, §7, §8, §9, §2, §10

Test [5] relates to SKOV3 (Ovarian adenocarcinoma). Briefly: In vitro cytotoxicity, microculture tetrazolium (MTT) assay, SKOV3. Format: cell-based, human. The settings on record: read-out: IC50. The procedure: as §4, §1, §5
SKOV3 (Ovarian adenocarcinoma)--provided by Dr. V. Ling,
as §6, §7, §8, §9, §2, §10

For test [6], the system named is MCF-7/ADR. The test can be described thus: In vitro antitumor activity, MCF-7/ADR (adriamycin resistant). Format: cell-based. The protocol: as §1, §2, §3
Test [7] deals with HT 29 (Colon adenocarcinoma). Briefly: In vitro cytotoxicity, microculture tetrazolium (MTT) assay, HT 29. The test is classed as cell-based, human. The settings on record: read-out: IC50. The procedure: as §4, §1, §5
HT 29 (Colon adenocarcinoma) ATCC catalog #HTB-38.
as §6, §7, §8, §9, §2, §10

Test [8] relates to MAT-B/ADR. Briefly: In vitro antitumor activity, MAT-B/ADR. Format: cell-based. The procedure:
as §1, §2, §3

The test system of test [9] is SKVLB (Ovarian; multidrug resistant). The test can be described thus: In vitro cytotoxicity, microculture tetrazolium (MTT) assay, SKVLB. The test is classed as cell-based, human. The following applies: for IC50: SKVLB, multidrug resistant, read-out: IC50; for VLB/OV3: ratio SKVLB / SKOV3. The method in brief: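 Multidrug-resistant ovarian SKVLB cells exposed 48 h at 37 °C to 1:3 serial dilutions (100 μM–1.7 nM), then 48 h in fresh medium. MTT reduction read at 570 nm after DMSO extraction; four-parameter logistic fit normalized to 0–100% survival.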

For test [10] the following is noted: literature; cited from earlier work.
The conditions of test [11]: Med. Res. Rev. 1981; cited from earlier work.
The conditions of test [12]: Med. Res. Rev. 1981; cited from earlier work. The source holds these as a separate data set.

Molecules are shown by their SMILES. Read-outs that look alike come from different tables or passages of the source.

Turning to `CC(=O)[C@H]1CC2=C(C(=O)c3ccccc3C2=O)[C@H](OC2C[C@H](NC(=O)C(F)(F)F)[C@H](O)[C@H](C)O2)O1` (stereo partly drawn) [BCH1146, (1'S,1S,3R)-Methyl (5,10-dioxo-1-(2',3',6'-trideoxy-3'-trifluoroacetamido-4'-hydroxy-L-lyxohexopyranose)-3,4,5,10-tetrahydronaphtho [2,3-C]pyran-3-yl) ketone], the IC50 in test [1] was 44 nM; in [2], 460 nM; in test [3], 5870 nM; in test [4] it was 3820 nM; in [5] (SKOV3), 891 nM; in test [6] (MCF-7/ADR) it was 190 nM. Besides, the values for the IC50 in test [7] (HT29), in test [8] and in test [9] were 910 nM, 560 nM and 6.97 µM, respectively. Moreover, in test [1] (breast cancer), the “potency in breast cancer, MCF-7, against adriamycin” value is “less potent than adriamycin”. For the same compound, the “effectiveness in the sensitive and adriamycin resistant cell line” value in test [6] (MCF-7 sensitive vs adriamycin resistant) was “nearly as effective in the sensitive and adriamycin resistant cell line”. The VLB/OV3 in [9] is recorded as 7.82.

`CC1O[C@H]2CC(=O)O[C@H]2C2=C1C(=O)c1c(O)c3c(c(O)c1C2=O)[C@H]1C[C@@H](O)[C@]3(O)[C@@H](C)O1` (stereo partly drawn) [Granaticin]: the antitumor activity result in test [10] is given as “show antitumor activity”.

As to `C=CC[C@H]1CC2=C(C(=O)c3ccccc3C2=O)[C@@H](OC2C[C@H](NC(=O)C(F)(F)F)[C@H](O)[C@H](C)O2)O1` (stereo partly drawn) [BCH1649, (1'-S,1-R,3-S)-3-([2',3',6'-trideoxy-3'-trifluoroacetamido-4'-hydroxy-L-lyhohexopyranose]-5,10-dioxo-3,4,5,10-tetrahydronaphtho-[2,3-c]-pyran-3-yl)-propene], the IC50 was 380 nM in [3]; 217 nM in [4]; 110 nM in test [5] (SKOV3); 331 nM in test [7] (HT29); 0.459 µM in test [9]. In addition, the VLB/OV3 in test [9] is given as 4.17.

For `CC(=O)OC1C(C)OC(OC2OC(C(C)=O)CC3=C2C(=O)c2ccccc2C3=O)C(I)C1OC(C)=O` (mixture of isomers) [BCH2065, (1'S,1R,1S) and (1'S,1S,3R)-methyl-(1-[2',6'-dideoxy-3',4'-diacetoxy-2'-iodo-L-arabino-hexopyranose]-5,10-dioxo-3,4,5,10-tetrahydronaphtho-[2,3-c]-pyran-3-yl) ketone], the IC50 in test [3] was determined as 2200 nM; in [4], 1400 nM; in test [5] (SKOV3) it was 1540 nM; in test [7] (HT29), 3420 nM; in [9], 6.1 µM. The VLB/OV3 in test [9] came to 4.

As for `C[C@H]1O[C@@H]2CC(=O)O[C@@H]2C2=C1C(=O)c1c(O)cccc1C2=O` [kalafungin], in test [11], the antifungal activity result was “antifungal activity”. Besides, the antibacterial activity result in test [12] is reported as “potent antibacterial”.

For the compound `CC(=O)[C@@H]1CC2=C(C(=O)c3ccccc3C2=O)[C@@H](O[C@@H]2O[C@H](CO)[C@@H](O)[C@H](O)[C@H]2NC(=O)N(CCCl)N=O)O1` [BCH2038, (1'R,1R,3S)-3-aceto-5,10-dioxo-1-(2-deoxy-2-chloroethyl-nitrosoureido-D-glucopyranose)-3,4,5,10-tetrahydro-1H-naphtho-[2,3-C] pyran], the IC50 in test [3] is 2000 nM; in [4], 173 nM; in test [5] (SKOV3), 832 nM; in [7] (HT29) it was 2000 nM; in test [9], 3.5 µM. Also, in [9], the VLB/OV3 was determined as 4.16.

Turning to `COC(=O)C1CC2=C(C(=O)c3c(cc4ccccc4c3O)C2=O)[C@@H](O[C@H]2C[C@H](NC(=O)C(F)(F)F)[C@H](O)[C@H](C)O2)O1` (stereo partly drawn) [pyranoanthraquinone (H)], in [10], the antitumor activity entry is on record as “possess antitumor activity”.

For `CC(=O)C1CC2=C(C(=O)c3ccccc3C2=O)C(OC2CC(NC(=O)C(F)(F)F)C(NC(=O)C(F)(F)F)C(C)O2)O1` [BCH2102, (1R,3S,1'S) and (1S,3R,1'S)-Methyl-(1-[2',3',4',6'-tetradeoxy-3',4'-bis-trifluoroacetamido-L-arabinohexopyranose]-5,10-dioxo-3,4,5,10-tetrahydronaphthaleno-[2,3-c]pyran-3-yl) ketone], the IC50 is 300 nM in [3]; 186 nM in test [4]; 130 nM in test [5] (SKOV3); 150 nM in test [7] (HT29); 0.723 µM in test [9]. The VLB/OV3 in test [9] was 5.65.

For the compound `C[C@@H]1O[C@@H](CC(=O)O)CC2=C1C(=O)c1c(O)cccc1C2=O` [nanaomycin A], the antifungal activity result in test [11] is recorded as “antifungal activity”. In addition, the antibacterial activity result in [12] is on record as “potent antibacterial”.

For `C=CC[C@@H]1CC2=C(C(=O)c3ccccc3C2=O)[C@@H](O[C@H]2C[C@H](NC(=O)C(F)(F)F)[C@H](O)[C@H](C)O2)O1` (mixture of isomers) [BCH2031, (1'S,1S,3S) and (1'S,1-R,3-R)-3-([2',3',6'-trideoxy-3'-trifluoroacetamido-4'-hydroxy-L-lyhohexopyranose]-5,10-dioxo-3,4,5,10-tetrahydronaphtho-[2,3-c]-pyran-3-yl)-propene], the half-maximal inhibitory concentration (IC50) in test [3] (Homo sapiens) was 16000 nM; in test [4] (Homo sapiens), 2800 nM; in test [5] (Homo sapiens, SK-OV-3, SKOV3), 6000 nM; in test [7] (Homo sapiens, HT-29, HT29), 8500 nM; in [9] (Homo sapiens) it was 18 µM. In addition, the VLB/OV3 in test [9] is recorded as 3.

On to `CC(=NO)[C@@H]1CC2=C(C(=O)c3ccccc3C2=O)[C@@H](O[C@H]2C[C@H](NC(=O)C(F)(F)F)[C@H](O)[C@H](C)O2)O1` [BCH2115, (1'S,1R,3S)-3 (oximoethyl)-5,10-dioxo-1 (2,3,6-trideoxy-3-trifluoroacetamido-L-lyxohexopyranose)-3,4,5,10-tetrahydro-1H-naphtho-(2,3-c)-pyran], for which the IC50 in [3] (Homo sapiens) was 5300 nM; in test [4] (Homo sapiens), 4000 nM; in test [5] (Homo sapiens, SK-OV-3, SKOV3) it was 2300 nM; in test [7] (Homo sapiens, HT-29, HT29), 5600 nM; in test [9] (Homo sapiens), above 100 µM. In test [9], the VLB/OV3 is above 50.
